Measured values taken from patent US12692253B2, “Antimicrobial compounds and methods” (Curza Global, LLC, priority 2019, dated 2026).

How the values were obtained:
[1] = tested on: E. coli S30 extract (bacterial protein synthesis); assay: E. coli S30 extract coupled transcription-translation luciferase assay (inhibition of bacterial protein synthesis); format: biochemical; settings: class by IC50 or % inhibition @ 1 μM, read-out: S30 IC50 (μM/% inhib.)
Method in brief: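 Coupled transcription-translation in E. coli S30 circular-DNA extract expressing luciferase from pBESTluc, with 8-point 2-fold compound dilutions; 1 hour at 37 °C, stopped at 4 °C. Luminescence read; % inhibition versus no-inhibitor wells, no-DNA wells as background.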

[2] = tested on: S. aureus (Sa); assay: Broth microdilution minimum inhibitory concentration (MIC), CLSI; format: cell-based; settings: Staphylococcus aureus, growth medium supplemented with sodium bicarbonate, read-out: Sa + bicarb MIC
Method in brief: (§1)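 Modified CLSI method: CAMHB (± bicarbonate 6.25/25 mM or 0-50% human serum), 8-point two-fold series, triplicates, 5×10^4 CFU/well.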

[3] = tested on: A. baumannn (Ab); assay: as above; format: cell-based; settings: Acinetobacter baumannii, read-out: Ab + bicarb MIC
Method in brief: as §1

[4] = tested on: E. coli (Ec); assay: as above; format: cell-based; settings: Escherichia coli, growth medium supplemented with sodium bicarbonate, read-out: E. coli + bicarb MIC
Method in brief: as §1

[5] = tested on: P. aeruginosa (Pa); assay: as above; format: cell-based; settings: Pseudomonas aeruginosa, growth medium supplemented with sodium bicarbonate, read-out: Pa MIC + bicarb
Method in brief: as §1

[6] = tested on: E. faecalis (Ef); assay: as above; format: cell-based; settings: Enterococcus faecalis, growth medium supplemented with sodium bicarbonate, read-out: Ef + bicarb MIC
Method in brief: as §1

[7] = target: Rabbit Reticulocyte Lysate (eukaryotic protein synthesis); assay: Rabbit reticulocyte lysate luciferase assay (inhibition of eukaryotic protein synthesis); format: biochemical; settings: class by IC50 or % inhibition @ 1 μM, read-out: Rabbit reticulocyte IC50 (μM/% inhib.)
Method in brief: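 In vitro translation of luciferase control RNA in nuclease-treated rabbit reticulocyte lysate with amino acid mixture, compounds in 2-fold serial dilution, 90 minutes at 30° C. Luminescence read after luciferase reagent; % inhibition relative to water no-inhibitor controls, with no-RNA background wells.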

Compound | IC50 [1] | MIC [2] | MIC [3] | MIC [4] | MIC [5] | MIC [6] | IC50 [7]
CC(Cc1ccc(-n2ccc(NC(=O)N3CCN(C(=O)C(C)(C)N)CC3)nc2=O)cc1)N1C[C@@H]2[C@@H](CN)[C@@H]2C1 (stereo partly shown) [Compound 122] | < 0.5 µM | < 8 µg/mL | 8 to 32 µg/mL | < 8 µg/mL | < 8 µg/mL | < 8 µg/mL | ≥ 1 µM
CC(C)(N)C(=O)N1CCN(C(=O)Nc2ccn(-c3ccc(CCN4CC5CC5(CN)C4)c(F)c3)c(=O)n2)CC1 (stereo not shown) [Compound 123] | < 0.5 µM | < 8 µg/mL | > 32 µg/mL | < 8 µg/mL | > 32 µg/mL | < 8 µg/mL | ≥ 1 µM
CC(Cc1ccc(-n2ccc(NC(=O)N3CCN(C(=O)C(C)(C)N)C[C@H]3C)nc2=O)cc1)N1C[C@@H]2[C@@H](CN)[C@@H]2C1 (stereo partly shown) [Compound 124] | < 0.5 µM | < 8 µg/mL | > 32 µg/mL | < 8 µg/mL | 8 to 32 µg/mL | < 8 µg/mL | ≥ 1 µM
CC(Cc1ccc(-n2ccc(NC(=O)N3CCN(C(=O)[C@@](C)(N)CO)CC3)nc2=O)cc1)N1C[C@@H]2[C@@H](CN)[C@@H]2C1 (stereo partly shown) [Compound 125] | < 0.5 µM | < 8 µg/mL | > 32 µg/mL | < 8 µg/mL | 8 to 32 µg/mL | < 8 µg/mL | ≥ 1 µM
Cc1cc(-n2ccc(NC(=O)N3CCN(C(=O)C(C)(C)N)CC3)nc2=O)ccc1CCN1C[C@@H]2[C@@H](CN)[C@@H]2C1 [Compound 126] | < 0.5 µM | < 8 µg/mL | 8 to 32 µg/mL | < 8 µg/mL | 8 to 32 µg/mL | 8 to 32 µg/mL | ≥ 1 µM
CC(C)(N)C(=O)N1CCN(C(=O)Nc2ccn(-c3ccc(CCN4C[C@@H]5[C@@H](CN)[C@@H]5C4)c(F)c3)c(=O)n2)CC1 [Compound 127] | < 0.5 µM | 8 to 32 µg/mL | > 32 µg/mL | < 8 µg/mL | 8 to 32 µg/mL | 8 to 32 µg/mL | ≥ 1 µM
Cc1cc(-n2ccc(NC(=O)N3CCN(C(=O)[C@@](C)(N)CO)CC3)nc2=O)ccc1CCN1CC2CC2(CN)C1 (stereo partly shown) [Compound 128] | < 0.5 µM | < 8 µg/mL | > 32 µg/mL | < 8 µg/mL | > 32 µg/mL | 8 to 32 µg/mL | ≥ 1 µM
Cc1cc(-n2ccc(NC(=O)N3CCN(C(=O)[C@@](C)(N)CO)CC3)nc2=O)ccc1CCN1C[C@@H]2[C@@H](CN)[C@@H]2C1 [Compound 129] | < 0.5 µM | < 8 µg/mL | > 32 µg/mL | < 8 µg/mL | 8 to 32 µg/mL | 8 to 32 µg/mL | ≥ 1 µM
Cc1cc(-n2ccc(NC(=O)N3CCN(C(=O)C(C)(C)N)CC3)nc2=O)ccc1CCN1CC2CC2(CN)C1 (stereo not shown) [Compound 130] | < 0.5 µM | < 8 µg/mL | 8 to 32 µg/mL | < 8 µg/mL | 8 to 32 µg/mL | < 8 µg/mL | ≥ 1 µM
CC(C)(N)C(=O)N1CCN(C(=O)Nc2ccn(-c3ccc(CCN4CC5CC5(CN)C4)c(C(F)(F)F)c3)c(=O)n2)CC1 (stereo not shown) [Compound 131] | < 0.5 µM | < 8 µg/mL | 8 to 32 µg/mL | < 8 µg/mL | > 32 µg/mL | < 8 µg/mL | ≥ 1 µM
COc1cc(-n2ccc(NC(=O)N3CCN(C(=O)C(C)(C)N)CC3)nc2=O)ccc1CCN1C[C@@H]2[C@@H](CN)[C@@H]2C1 [Compound 132] | < 0.5 µM | 8 to 32 µg/mL | > 32 µg/mL | < 8 µg/mL | 8 to 32 µg/mL | 8 to 32 µg/mL | ≥ 1 µM
COc1cc(-n2ccc(NC(=O)N3CCN(C(=O)C(C)(C)N)CC3)nc2=O)ccc1CCN1CC2CC2(CN)C1 (stereo not shown) [Compound 133] | < 0.5 µM | 8 to 32 µg/mL | > 32 µg/mL | < 8 µg/mL | > 32 µg/mL | 8 to 32 µg/mL | ≥ 1 µM
CC(N)[C@H]1[C@@H]2CN(CCc3ccc(-n4ccc(NC(=O)N5CCN(C(=O)C(C)(C)N)CC5)nc4=O)cc3)C[C@@H]21 (stereo partly shown) [Compound 134] | < 0.5 µM | < 8 µg/mL | 8 to 32 µg/mL | < 8 µg/mL | 8 to 32 µg/mL | < 8 µg/mL | ≥ 1 µM
